According to patent US20250127907A1, “PARP INHIBITORS” (Stablix, Inc., priority 2023, published 2025):

Key:
PARP1 [1] = biological target: T1, PARP1 (Homo sapiens, UniProt P09874); test: PARP1-enzyme assay (NAD/NADH-Glo biochemical assay); conditions: recombinant PARP1, NAD+ consumption
Procedure: The PARP enzyme catalyzes the transfer of ADP-Ribose from NAD+ onto PAR chains/histone substrates. The catalytic cycle is monitored indirectly with the NAD/NADH-Glo Assay kit from Promega. […] NAD+ consumed is determined by comparison to the no enzyme control.
• Recombinant PARP1 • NAD+/NAHD-Glow assay Kit • Activated DNA, 10 μg/mL • NAD+(Nicotinamide Adenine Dinucleotide), 500 nM • Protein substrate for PARP1: Core Histone from chicken, 10 μg/mL
The letter codes for the PARP1-enzyme assay include: A (<1 nM), B (>1-10 nM), C (>10-100 nM), D (>100-1000 nM), E (>1000 nM), and “-” is not tested. The letter codes for the PARP trapping assay, and parylation assay include: A (<10 nM), B (>10-100 nM), C (>100-1000 nM), […], E (>10000 nM), and “-” is not tested.
Target sequence in this assay (P09874 whole entry, species assumed): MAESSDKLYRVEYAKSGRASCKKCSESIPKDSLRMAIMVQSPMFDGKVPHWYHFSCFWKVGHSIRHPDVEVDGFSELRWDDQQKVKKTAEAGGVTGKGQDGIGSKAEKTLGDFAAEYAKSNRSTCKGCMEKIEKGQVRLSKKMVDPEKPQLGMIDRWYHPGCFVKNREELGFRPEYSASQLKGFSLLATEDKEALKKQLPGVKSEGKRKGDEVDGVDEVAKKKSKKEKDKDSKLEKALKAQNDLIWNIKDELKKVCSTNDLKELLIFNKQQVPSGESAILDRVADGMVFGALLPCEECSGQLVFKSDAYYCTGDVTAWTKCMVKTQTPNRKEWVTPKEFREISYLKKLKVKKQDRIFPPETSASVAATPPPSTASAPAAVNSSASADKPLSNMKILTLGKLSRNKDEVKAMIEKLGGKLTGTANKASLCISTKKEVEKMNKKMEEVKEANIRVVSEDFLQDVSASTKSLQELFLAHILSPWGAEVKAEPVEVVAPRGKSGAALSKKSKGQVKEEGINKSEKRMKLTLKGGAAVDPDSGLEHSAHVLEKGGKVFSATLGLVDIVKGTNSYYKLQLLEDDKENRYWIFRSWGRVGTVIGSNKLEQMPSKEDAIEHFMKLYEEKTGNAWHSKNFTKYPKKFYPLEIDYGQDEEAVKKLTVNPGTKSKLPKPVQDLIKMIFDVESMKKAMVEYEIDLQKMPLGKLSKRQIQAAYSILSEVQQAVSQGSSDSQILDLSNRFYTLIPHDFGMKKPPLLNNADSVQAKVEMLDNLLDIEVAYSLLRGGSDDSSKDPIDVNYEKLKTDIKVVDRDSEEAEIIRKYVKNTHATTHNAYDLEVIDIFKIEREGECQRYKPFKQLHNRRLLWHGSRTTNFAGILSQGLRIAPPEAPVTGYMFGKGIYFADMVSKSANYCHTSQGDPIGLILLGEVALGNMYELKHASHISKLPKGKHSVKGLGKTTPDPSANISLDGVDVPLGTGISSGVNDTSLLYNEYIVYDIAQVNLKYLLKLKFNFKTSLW

[2] = tested on: Poly/Mono-ADP Ribose in U2OS cells; test: PAR in cell western assay (parylation) in U2OS cells; assay type: cell-based; conditions: Homo sapiens; U2OS cells, 6 hrs, 2 mM H2O2; read-out: Parylation (U2OS)
Summary of the method: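 U2OS cells treated with compound for 6 h, then 2 mM H2O2 for 10 min to induce DNA damage. After methanol fixation, cells stained overnight at 4 °C with anti-mono/poly-ADP-ribose antibody and imaged by infrared in-cell western, normalized to CellTag 700; reported as % control inhibition.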

A2780 cells = test: Cell proliferation assay (A2780); assay type: cell-based; conditions: Homo sapiens, 168 h, 7 days
HCC1806 cells = test: Cell proliferation assay (HCC1806); assay type: cell-based; conditions: Homo sapiens, 168 h, 7 days
MDA-MB-436 cells = test: Cell proliferation assay (MDA-MB-436); assay type: cell-based; conditions: Homo sapiens, 168 h, 7 days
PARP1 [3] = biological target: T1, PARP1; test: PARP trapping assay in U2OS cells; assay type: cell-based; set-up: endogenous in cells; host or cells: U2OS; conditions: U2OS cells, MMS, 4 hrs; read-out: PARP Trapping (U2OS)
Summary of the method: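 U2OS cells co-treated with compounds and MMS for 4 h, then soluble proteins extracted with 0.5% Triton X-100, MeOH-fixed and immunostained for PARP1. Chromatin-bound PARP1 quantified as AF488 intensity per DAPI-segmented nucleus; potencies reported as letter-code bins.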
Target sequence in this assay (P09874 whole entry): as the sequence (P09874 whole entry, species assumed) above

Compound	IC50 (PARP1 [1]) [nM]	IC50 [2] [nM]	IC50 (A2780 cells) [nM]	IC50 (HCC1806 cells) [nM]	IC50 (MDA-MB-436 cells) [nM]	IC50 (PARP1 [3]) [nM]
CCc1cccc(-c2cc(F)c(C(=O)N3CCC(CN4CCN(CC(=O)N5CCN(C(=O)c6cc(Cc7n[nH]c(=O)c8ccccc78)ccc6F)CC5)CC4)CC3)c(F)c2)c1 [Compound I-410]	< 1	10 to 100	10 to 100	10 to 100	< 10	10 to 100
O=C(N[C@@H](C(=O)N1CCC(OC2CCN(CC(=O)N3CCN(C(=O)c4cc(Cc5n[nH]c(=O)c6ccccc56)ccc4F)CC3)CC2)CC1)C1CCCCC1)c1cccc(C2CCCN(C(=O)C3CC3)C2)c1F (stereo partly drawn) [Compound I-457]	< 1	100 to 1000	10 to 100	10 to 100	< 10	10 to 100
CC(C)(C)OC(=O)N[C@@H](C(=O)N1CCC(OC2CCN(CC(=O)N3CCN(C(=O)c4cc(Cc5n[nH]c(=O)c6ccccc56)ccc4F)CC3)CC2)CC1)C1CCCCC1 [Compound I-787]	< 1	10 to 100	10 to 100	10 to 100	< 10	10 to 100
O=C(N[C@@H](C(=O)N1CCN(CC2CCN(CC(=O)N3CCN(C(=O)c4cc(Cc5n[nH]c(=O)c6ccccc56)ccc4F)CC3)CC2)CC1)C1CCCCC1)c1cccc(C2CCCN(C(=O)C3CC3)C2)c1 (stereo partly drawn) [Compound I-962]	< 1	10 to 100	100 to 1000	100 to 1000	10 to 100	100 to 1000
